Results published in patent publication US12138320B2, “Composition and methods for tumor imaging and treatment” (The University of Chicago, priority 2020, dated 2024).

Experiments:
[1] = Radiochemical stability by radioactive HPLC; assay type: physicochemical; conditions: physiologic buffers; PBS containing 10% ethanol, up to 120 min
Experimental: Stability analyses of HPLC-purified […]: Radiochemical stability testing of the synthesized [^18F]JW199, was performed with multiple HPLC injections using increasing amounts of activity to keep the peak heights roughly similar. 64 μCi was injected 83 minutes post synthesis, and this was considered the t=0 time point. The subsequent injection was 79 μCi at 30-minutes, followed by three more injections of 86, 106, and 117 μCi at 60, 90, and 120-minutes respectively.

NCEH1 = biological target: T1, NCEH1 (Mus musculus, UniProt Q8BLF1); test: In vivo microPET/CT imaging and ex vivo biodistribution in nude mice
T1 construct: For murine proteomes, mouse tissues were Dounce-homogenized on ice in cold PBS; from tissue; host or cells: athymic nude mice: heart, kidney, lung, liver, brain, spleen and other organs
T1 sequence (Q8BLF1 1-408): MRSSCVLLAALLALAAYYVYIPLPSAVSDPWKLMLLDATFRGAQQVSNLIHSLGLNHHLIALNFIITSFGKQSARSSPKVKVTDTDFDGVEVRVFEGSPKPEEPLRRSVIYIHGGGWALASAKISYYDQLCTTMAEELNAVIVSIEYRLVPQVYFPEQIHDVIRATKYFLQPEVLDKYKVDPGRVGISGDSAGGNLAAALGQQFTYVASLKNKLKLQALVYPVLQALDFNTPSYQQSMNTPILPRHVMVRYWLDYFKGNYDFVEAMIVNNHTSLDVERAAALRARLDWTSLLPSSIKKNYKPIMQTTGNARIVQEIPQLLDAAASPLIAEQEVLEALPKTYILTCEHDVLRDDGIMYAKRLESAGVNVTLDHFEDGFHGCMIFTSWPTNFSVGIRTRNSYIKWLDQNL
Experimental: In vivo microPET/CT imaging: All imaging was performed by the Integrated Small Animal Imaging Research Resource (iSAIRR) at the University of Chicago (Chicago, Illinois, United States of America) on a β-Cube and X-Cube (Molecubes NV, Ghent, Belgium). […] MicroCT images were acquired using the general purpose protocol, with energy of 50 KeV and a tube current of 100 μA. Respiration rate and body temperature of the animal were constantly monitored during the entire scanning period with the p-Cube and X-Cube onboard monitoring system. A 1 hr dynamic PET acquisition was started 2 hours after [^18F]JW199 injection. Dynamic reconstruction was performed for 6 frames of 10 minutes each using a three-dimensional (3D) OSEM algorithm with 400 μm isometric voxel size. For competition studies, mice were pretreated with either 80 mg/kg JW480 or vehicle (polyethylene glycol 300 (PEG300)) via oral gavage, followed 4 hours later by dosing with [^18F]JW199 and imaging as described. For the MDA-MB231 study, [^18F]JW199 injection was followed immediately by dynamic PET acquisition (90 min) and microCT scanning as detailed above. Dynamic PET image reconstruction included 9 frames of 10 minutes each.
Dynamic reconstruction was performed using a three-dimensional OSEM algorithm with 400 μm isometric voxel size. All image analysis was performed with software sold under the tradename VivoQuant™ (inviCRO, LLC, Boston, Massachusetts, United States of America). 3D regions of interest (ROIs) were drawn and standardized uptake values (SUVs) and percent injected dose per cubic centimeter of tissue (% ID/cc) were calculated for each ROI and time point. % ID/cc was calculated as a ratio of tissue radioactivity concentration (mCi/g) at time of scan to total injected activity (millicurie (mCi)) at time of scan.
Ex vivo Biodistribution: All animals were sacrificed at 3 hours post [^18F]JW199 injection and organs and tumors were immediately harvested. All tissues were weighed, and radioactivity was counted using a Cobra II […] (PerkinElmer, Waltham, Massachusetts, United States of America) calibrated for [^18F] energy. The concentration of radioactivity in tumor, organs, and tissues was determined as percentage of injected dose per cubic centimeter of tissue (% ID/cc).

[2] = tested on: PC3 prostate cancer xenografts; test: PET/CT imaging and ex vivo biodistribution in mice bearing PC3 xenografts; set-up: species or system mouse; conditions: ex vivo quantitation, 3 hours after injection, prostate cancer model
From the text: FIGS. 12A-12C: In vivo prostate cancer tumor images with fluorine-18-labeled 2-isopropylphenyl-(4-(2-fluorethoxy)phenethyl)carbamate ([^18F]JW199) tracer. FIG. 12A is a representative whole-body positron emission tomography-computed tomography (PET-CT) image of a PC3 prostate cancer cell tumor-bearing mouse and tumor boundary image in inset. Image is representative of n=4 mice. B. FIG. 12B is a graph showing the ex vivo biodistribution of [^18F]JW199 in mice bearing PC3 xenografts. Quantification of radiotracer signal in the indicated tissues 3 hours after injection of 150 microcurie (μCi) of radiotracer. Data are means percentage injected dose per cubic centimeter (% ID/cc)±standard deviation (SD) (n=4 male mice). FIG. 12C is a graph of the glyceraldehyde-3-phosphate dehydrogenase (GAPDH)-normalized neutral cholesterol ester hydrolase 1 (NCEH1) protein levels in the edge (red) and inside (blue) areas of tumor xenografts, ***p<0.001 as determined by Student's t-test. […]
In vivo microPET/CT imaging: All imaging was performed by the Integrated Small Animal Imaging Research Resource (iSAIRR) at the University of Chicago (Chicago, Illinois, United States of America) on a β-Cube and X-Cube (Molecubes NV, Ghent, Belgium). […] Respiration rate and body temperature of the animal were constantly monitored during the entire scanning period with the p-Cube and X-Cube onboard monitoring system. […]

## CC(C)c1ccccc1OC(=O)NCCc1ccc(OCC[18F])cc1 [[^18F]JW199, fluorine-18-labeled 2-isopropylphenyl-(4-(2-fluoroethoxy)phenethyl)carbamate]
[1]
  chemical stability: chemically stable
NCEH1; during the entire imaging procedure
  PET signal kinetics in target organs: quickly reached and maintained constant levels
NCEH1; i.v.
  PET signal in the brain: low PET signal
NCEH1; i.v., inferred from brain PET signal
  CNS penetration: low CNS penetration
NCEH1; i.v., tissues with low Nceh1 mRNA levels
  uptake in adipose depots, liver and bone: relatively low uptake
NCEH1; i.v., ~100 μCi, tissues with relatively high Nceh1 expression
  PET signal accumulation in kidney, heart and lung: Significant signal accumulation
NCEH1; mouse, in vivo
  accumulation in mouse tissues: rapid, NCEH1-dependent accumulation
[2]
  total radioactivity in bulk tumor tissue relative to surrounding muscle: higher total radioactivity
